Measured values: patent US20100152622A1, “MOTOR PHENOMENON MEASUREMENT” (priority 2007, published 2010)
“Also recorded” adds a separate entry of the source.

Assays:
schizophrenia patients [1] = assay: Handwriting velocity scaling (VS) in patients grouped by antipsychotic medication; format: in vivo, human; conditions: lower VS scores indicate more parkinsonian bradykinesia; loops of 1, 2, 4 cm
Description: Lower VS scores indicate more parkinsonian bradykinesia.
This measure expresses the extent to which movements are sped up when size is increased.
One simple and direct measure is the increase of a velocity measure in one stroke (e.g., in cm/s) divided by the increase of size (e.g., in cm). This resulting velocity scaling has a unit of size/duration/size or 1/duration.

schizophrenia patients [2] = conditions: for average normalized jerk (ANJ) score compared between medication groups / average normalized jerk (ANJ) score compared with healthy subjects: handwriting dysfluency; for average normalized jerk (ANJ) score compared between medication groups: marker of TD/EPS, 9 handwriting tasks, dominant hand, 1, 2, 4 cm, versus other medications; for average normalized jerk (ANJ) score compared with healthy subjects: medication group versus normal healthy subjects
schizophrenia patients [3] = assay: Observer-based EPS severity ratings (SAEPS, AIMS, BARS); format: in vivo, human
schizophrenia patients [4] = conditions: in vivo
dopamine receptor = dopamine receptor (Homo sapiens, UniProt P14416); conditions: PET in schizophrenic patients before and after treatment; cited from earlier work
dopamine receptor, sequence (P14416 whole entry): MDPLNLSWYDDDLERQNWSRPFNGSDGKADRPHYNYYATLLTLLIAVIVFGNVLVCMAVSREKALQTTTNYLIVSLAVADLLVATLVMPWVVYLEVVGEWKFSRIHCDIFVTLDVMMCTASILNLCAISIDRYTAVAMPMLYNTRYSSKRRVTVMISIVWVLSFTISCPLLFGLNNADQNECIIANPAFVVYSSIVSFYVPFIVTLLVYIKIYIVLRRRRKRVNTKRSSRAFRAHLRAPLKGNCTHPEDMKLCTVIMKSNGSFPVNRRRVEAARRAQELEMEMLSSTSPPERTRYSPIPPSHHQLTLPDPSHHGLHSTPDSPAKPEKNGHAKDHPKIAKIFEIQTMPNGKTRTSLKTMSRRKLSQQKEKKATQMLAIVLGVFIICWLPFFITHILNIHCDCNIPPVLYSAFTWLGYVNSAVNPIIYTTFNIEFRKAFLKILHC

Row | SMILES | velocity scaling (VS) score (slope of peak vertical velocity versus vertical size) compared between medication groups (schizophrenia patients [1]) | effect of antipsychotic type on average normalized jerk and peak velocity (schizophrenia patients [2]; collapsed across all 14 task conditions) | average normalized jerk (ANJ) score compared between medication groups (schizophrenia patients [2]) | average normalized jerk (ANJ) score compared with healthy subjects (schizophrenia patients [2]) | observer-based EPS assessments: medicated versus unmedicated groups and relationship with dose (schizophrenia patients [3]; conventional ratings) | correlation between observer-based severity ratings and dose (schizophrenia patients [3]; p>0.05) | correlation (r) of peak vertical velocity with daily dose (schizophrenia patients [4]) | motor impairment quantified by handwriting movements (schizophrenia patients [4]) | relationship between reduction in handwriting size (area) and dopamine receptor occupancy (dopamine receptor)
1 | O=C1CCc2ccc(OCCCCN3CCN(c4cccc(Cl)c4Cl)CC3)cc2N1 [aripiprazole] | lower VS scores than those on olanzapine or quetiapine; also recorded: lower VS scores than those on other medications | doing worse than others | significantly higher ANJ | significantly higher ANJ scores than healthy subjects |  |  |  |  | 
2 | OCCOCCN1CCN(C2=Nc3ccccc3Sc3ccccc32)CC1 [quetiapine] |  |  | significantly less abnormality than those treated with aripiprazole or risperidone | did not differ from normal healthy subjects |  |  |  |  | 
3 | Cc1nc2n(c(=O)c1CCN1CCC(c3noc4cc(F)ccc34)CC1)CCCC2 [risperidone] |  |  |  |  | not able to detect differences between risperidone-medicated and unmedicated groups or a relationship with risperidone dose | no significant correlations | −0.45 | significant motor impairment | significant relationship between reduction in handwriting size (expressed by area) and dopamine receptor occupancy
